One assay relates to P. irregulare. As to the kind of experiment: Effects of methanol on fungal growth. The class given is cell-based, Pythium irregulare. The note with it: 20 g/L pure glycerol spiked with 2, 4, and 8 g/L methanol; filter-sterilised; spores inoculated. The source says: The crude glycerol used in this work contained ˜12% (w/w) methanol. […] To study the “true” effects of methanol on fungal growth and EPA production, we prepared a medium containing 20 g/L pure glycerol spiked with 2, 4, and 8 g/L methanol. The medium was then passed through a 0.2 μm filter before fungal spores were inoculated. […] The result clearly indicated the negative effects of methanol on growth and EPA production of P. irregulare.

Assay [1] relates to Pythium irregulare (ATCC 10951). As to the kind of experiment: Growth and EPA production of P. irregulare with glucose, pure glycerol or crude glycerol as carbon source. In kind it is cell-based. The note with it: FIG. 1A; substrate around 20 g/L.

The structures appear in SMILES notation.

Regarding `CO` [methanol], the “growth in methanol-containing medium” value in the assay with P. irregulare is “did not observe any growth”.

Regarding `OCC(O)CO` [Pure glycerol, glycerol], the cell growth result in assay [1] is given as “supported cell growth”.

The values above are taken from patent publication US8541210B2, “Producing eicosapentaenoic acid (EPA) from biodiesel-derived crude glycerol” (Virginia Tech Intellectual Properties, Inc., priority 2008, dated 2013).
